PubChem BioAssay AID1963420 (Molecular Pharmacology Branch, DTP, NCI, 2024)

Tested on: 494315-158-R-J1-PDC complex spheroid growth, percent test/control
Assay: Anticancer human tumor 494315-158-R-J1-PDC patient-derived soft tissue sarcoma cell line growth inhibition [Asc]
Conditions: for IC50: curve of first compound; for viability, T/C: stronger effect = lower value
Procedure, shortened: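 Concentration series start at each agent's clinical Cmax, or at 10 microM when none is established, and drop in half-log steps; agents are applied alone or together to complex spheroids built with HUVEC and hMSC.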

[1] = second compound 0.01 µM, first compound 0.00316 µM
[2] = second compound 0.01 µM, first compound 0.01 µM
[3] = second compound 0.01 µM, first compound 0.0316 µM
[4] = second compound 0.01 µM, first compound 0.1 µM
[5] = second compound 0.0316 µM, first compound 0.00316 µM
[6] = second compound 0.0316 µM, first compound 0.01 µM
[7] = second compound 0.0316 µM, first compound 0.0316 µM
[8] = second compound 0.0316 µM, first compound 0.1 µM
[9] = second compound 0.1 µM, first compound 0.00316 µM
[10] = second compound 0.1 µM, first compound 0.01 µM
[11] = second compound 0.1 µM, first compound 0.0316 µM
[12] = second compound 0.1 µM, first compound 0.1 µM
[13] = second compound 0.316 µM, first compound 0.00316 µM
[14] = second compound 0.316 µM, first compound 0.01 µM
[15] = second compound 0.316 µM, first compound 0.0316 µM
[16] = second compound 0.316 µM, first compound 0.1 µM
[17] = second compound 1 µM, first compound 0.00316 µM
[18] = second compound 1 µM, first compound 0.01 µM
[19] = second compound 1 µM, first compound 0.0316 µM
[20] = second compound 1 µM, first compound 0.1 µM
[21] = second compound 0.01 µM, first compound 0.316 µM
[22] = second compound 0.01 µM, first compound 1 µM
[23] = second compound 0.0316 µM, first compound 0.316 µM
[24] = second compound 0.0316 µM, first compound 1 µM
[25] = second compound 0.1 µM, first compound 0.316 µM
[26] = second compound 0.1 µM, first compound 1 µM
[27] = second compound 0.316 µM, first compound 0.316 µM
[28] = second compound 0.316 µM, first compound 1 µM
[29] = second compound 1 µM, first compound 0.316 µM
[30] = second compound 1 µM, first compound 1 µM
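Further: compound exposure lasted seven days after spheroids formed for three days.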

In the case of Cc1nc(N2CCC3(CC2)COC(C)C3N)c(CO)nc1Sc1ccnc(N)c1Cl (stereo not given) + CCN1C(C(=O)NC23CCC(C(=O)O)(CC2)CC3)C(c2cccc(Cl)c2F)C2(C(=O)Nc3cc(Cl)ccc32)C12CCCCC2, the IC50 (second compound 0.03 µM) is reported as greater than 3000 nM, the IC50 (second compound 0.0949 µM) is reported as 1430 nM and the IC50 (second compound 0.3 µM) is reported as 915 nM. The IC50 (second compound 0.949 µM) was 601 nM, the IC50 (second compound 3 µM) was 718 nM and the viability, T/C (second compound 0.03 µM, first compound 0.00949 µM) was 102%. For the same compound, the viability, T/C (second compound 0.03 µM, first compound 0.03 µM) was 90.3%, the viability, T/C (second compound 0.03 µM, first compound 0.0949 µM) was 70.8% and the viability, T/C (second compound 0.03 µM, first compound 0.3 µM) was 64.2%. For the same compound, the viability, T/C (second compound 0.03 µM, first compound 0.949 µM) was 51.5%, the viability, T/C (second compound 0.03 µM, first compound 3 µM) was 58.4% and the viability, T/C (second compound 0.0949 µM, first compound 0.00949 µM) was 83.8%. For the same compound, the viability, T/C (second compound 0.0949 µM, first compound 0.03 µM) was 83.6%, the viability, T/C (second compound 0.0949 µM, first compound 0.0949 µM) was 72% and the viability, T/C (second compound 0.0949 µM, first compound 0.3 µM) was 69%. It also gave a viability, T/C (second compound 0.0949 µM, first compound 0.949 µM) of 59.5%, a viability, T/C (second compound 0.0949 µM, first compound 3 µM) of 36.4% and a viability, T/C (second compound 0.3 µM, first compound 0.00949 µM) of 79.6%. For the same compound, the viability, T/C (second compound 0.3 µM, first compound 0.03 µM) was 89.9%, the viability, T/C (second compound 0.3 µM, first compound 0.0949 µM) was 81.7% and the viability, T/C (second compound 0.3 µM, first compound 0.3 µM) was 68.3%. The viability, T/C (second compound 0.3 µM, first compound 0.949 µM) was 50.4%, the viability, T/C (second compound 0.3 µM, first compound 3 µM) was 37.1% and the viability, T/C (second compound 0.949 µM, first compound 0.00949 µM) was 89.3%. The viability, T/C (second compound 0.949 µM, first compound 0.03 µM) was 87.2%, the viability, T/C (second compound 0.949 µM, first compound 0.0949 µM) was 76.9% and the viability, T/C (second compound 0.949 µM, first compound 0.3 µM) was 63.4%. For the same compound, the viability, T/C (second compound 0.949 µM, first compound 0.949 µM) was 40%, the viability, T/C (second compound 0.949 µM, first compound 3 µM) was 37.6% and the viability, T/C (second compound 3 µM, first compound 0.00949 µM) was 80.9%. For the same compound, the viability, T/C (second compound 3 µM, first compound 0.03 µM) was 86%, the viability, T/C (second compound 3 µM, first compound 0.0949 µM) was 78.2% and the viability, T/C (second compound 3 µM, first compound 0.3 µM) was 62.2%. The viability, T/C (second compound 3 µM, first compound 0.949 µM) was 47.1% and the viability, T/C (second compound 3 µM, first compound 3 µM) was 32.5%.

Compound Cn1ncnc1[C@H]1c2n[nH]c(=O)c3cc(F)cc(c23)N[C@@H]1c1ccc(F)cc1 + CNC(C)C(=O)NC1CN(S(=O)(=O)c2cccc(S(=O)(=O)N3CCC4CCC(C(=O)NC(c5ccccc5)c5ccccc5)N4C(=O)C(NC(=O)C(C)NC)C3)c2)CCC2CCC(C(=O)NC(c3ccccc3)c3ccccc3)N2C1=O has an IC50 (second compound 0.01 µM) of 34.3 nM, an IC50 (second compound 0.0316 µM) of 3.18 nM and an IC50 (second compound 0.1 µM) of 0.316 nM. For the same compound, the IC50 (second compound 0.316 µM) was less than 0.316 nM, the IC50 (second compound 1 µM) was less than 0.316 nM and the viability, T/C (second compound 0.01 µM, first compound 0.000316 µM) was 65.8%. It also gave a viability, T/C (second compound 0.01 µM, first compound 0.001 µM) of 73%, a viability, T/C [1] of 59.1% and a viability, T/C [2] of 53.5%. It also gave a viability, T/C [3] of 49.6%, a viability, T/C [4] of 46.1% and a viability, T/C (second compound 0.0316 µM, first compound 0.000316 µM) of 56.5%. For the same compound, the viability, T/C (second compound 0.0316 µM, first compound 0.001 µM) was 59.9%, the viability, T/C [5] was 50.1% and the viability, T/C [6] was 36.8%. It also gave a viability, T/C [7] of 38%, a viability, T/C [8] of 34.1% and a viability, T/C (second compound 0.1 µM, first compound 0.000316 µM) of 44.1%. For the same compound, the viability, T/C (second compound 0.1 µM, first compound 0.001 µM) was 53.4%, the viability, T/C [9] was 49.6% and the viability, T/C [10] was 32%. For the same compound, the viability, T/C [11] was 33.4%, the viability, T/C [12] was 31.2% and the viability, T/C (second compound 0.316 µM, first compound 0.000316 µM) was 49.9%. For the same compound, the viability, T/C (second compound 0.316 µM, first compound 0.001 µM) was 38.8%, the viability, T/C [13] was 33.7% and the viability, T/C [14] was 29.4%. For the same compound, the viability, T/C [15] was 27.2%, the viability, T/C [16] was 26.4% and the viability, T/C (second compound 1 µM, first compound 0.000316 µM) was 41.1%. The viability, T/C (second compound 1 µM, first compound 0.001 µM) was 40.1%, the viability, T/C [17] was 38.5% and the viability, T/C [18] was 26.9%. For the same compound, the viability, T/C [19] was 29% and the viability, T/C [20] was 22.6%.

In the case of O=C(c1cc(Cc2n[nH]c(=O)c3ccccc23)ccc1F)N1CCN(C(=O)C2CC2)CC1 + CNC(C)C(=O)NC1CN(S(=O)(=O)c2cccc(S(=O)(=O)N3CCC4CCC(C(=O)NC(c5ccccc5)c5ccccc5)N4C(=O)C(NC(=O)C(C)NC)C3)c2)CCC2CCC(C(=O)NC(c3ccccc3)c3ccccc3)N2C1=O, the IC50 (second compound 0.01 µM) is reported as 2430 nM, the IC50 (second compound 0.0316 µM) is reported as 384 nM and the IC50 (second compound 0.1 µM) is reported as less than 31.6 nM. The IC50 (second compound 0.316 µM) was less than 31.6 nM, the IC50 (second compound 1 µM) was less than 31.6 nM and the viability, T/C [3] was 66.3%. For the same compound, the viability, T/C [4] was 73.2%, the viability, T/C [21] was 60.3% and the viability, T/C [22] was 70.3%. The viability, T/C (second compound 0.01 µM, first compound 3.16 µM) was 44.8%, the viability, T/C (second compound 0.01 µM, first compound 10 µM) was 27.5% and the viability, T/C [7] was 51.8%. The viability, T/C [8] was 52%, the viability, T/C [23] was 52.1% and the viability, T/C [24] was 43.9%. For the same compound, the viability, T/C (second compound 0.0316 µM, first compound 3.16 µM) was 41.9%, the viability, T/C (second compound 0.0316 µM, first compound 10 µM) was 20% and the viability, T/C [11] was 41%. For the same compound, the viability, T/C [12] was 46.4%, the viability, T/C [25] was 46.3% and the viability, T/C [26] was 39.1%. The viability, T/C (second compound 0.1 µM, first compound 3.16 µM) was 33.2%, the viability, T/C (second compound 0.1 µM, first compound 10 µM) was 19.8% and the viability, T/C [15] was 37.2%. For the same compound, the viability, T/C [16] was 38%, the viability, T/C [27] was 42.8% and the viability, T/C [28] was 35.8%. The viability, T/C (second compound 0.316 µM, first compound 3.16 µM) was 27.5%, the viability, T/C (second compound 0.316 µM, first compound 10 µM) was 14.3% and the viability, T/C [19] was 33.8%. For the same compound, the viability, T/C [20] was 39.4%, the viability, T/C [29] was 40.2% and the viability, T/C [30] was 31.8%. It also gave a viability, T/C (second compound 1 µM, first compound 3.16 µM) of 22.3% and a viability, T/C (second compound 1 µM, first compound 10 µM) of 13.6%.

In the case of O=C(c1ccc(F)c(F)c1Nc1ccc(I)cc1F)N1CC(O)([C@@H]2CCCCN2)C1 + CNC(C)C(=O)NC1CN(S(=O)(=O)c2cccc(S(=O)(=O)N3CCC4CCC(C(=O)NC(c5ccccc5)c5ccccc5)N4C(=O)C(NC(=O)C(C)NC)C3)c2)CCC2CCC(C(=O)NC(c3ccccc3)c3ccccc3)N2C1=O, the IC50 (second compound 0.01 µM) is reported as greater than 1000 nM, the IC50 (second compound 0.0316 µM) is reported as 927 nM and the IC50 (second compound 0.1 µM) is reported as greater than 1000 nM. It also gave an IC50 (second compound 0.316 µM) of less than 3.16 nM, an IC50 (second compound 1 µM) of less than 3.16 nM and a viability, T/C [1] of 83.5%. For the same compound, the viability, T/C [2] was 75.5%, the viability, T/C [3] was 85.8% and the viability, T/C [4] was 96.7%. For the same compound, the viability, T/C [21] was 97.3%, the viability, T/C [22] was 62.9% and the viability, T/C [5] was 72.8%. For the same compound, the viability, T/C [6] was 68.3%, the viability, T/C [7] was 74.3% and the viability, T/C [8] was 93.1%. The viability, T/C [23] was 87.8%, the viability, T/C [24] was 47.9% and the viability, T/C [9] was 53.2%. It also gave a viability, T/C [10] of 61.4%, a viability, T/C [11] of 65.8% and a viability, T/C [12] of 87.5%. For the same compound, the viability, T/C [25] was 92.7%, the viability, T/C [26] was 59.9% and the viability, T/C [13] was 46.7%. It also gave a viability, T/C [14] of 60.3%, a viability, T/C [15] of 57.2% and a viability, T/C [16] of 67.5%. It also gave a viability, T/C [27] of 72.2%, a viability, T/C [28] of 58.3% and a viability, T/C [17] of 47.9%. It also gave a viability, T/C [18] of 52%, a viability, T/C [19] of 67.1% and a viability, T/C [20] of 66.3%. For the same compound, the viability, T/C [29] was 76.2% and the viability, T/C [30] was 46.7%.
